One compound from US8450373B2, “Alpha ketoamide compounds as cysteine protease inhibitors” (Virobay, Inc., priority 2005, dated 2013) can be followed below.

`CC[C@H](NC(=O)[C@H](CCS(C)(=O)=O)N[C@@H](c1ccc(F)cc1)C(F)(F)F)C(=O)C(=O)NC1CC1` [Table I Cpd. 78, N-cyclopropyl-3S-{4-methanesulfonyl-2S-[2,2,2-trifluoro-1S-(4-fluoro-phenyl)-ethylamino]-butyrylamino}-2-oxo-pentanamide] showed a melting point of 152.5 to 153.5 °C.

One may read the melting point as the temperature of the solid-liquid transition.
